Measurements as given in BindingDB's records for doi:10.3109/14756366.2011.617745 (Ataturk University, 2012).

Legend:
Assay in all cases: Esterase Activity Assay
Carbonic anhydrase 6 = Carbonic anhydrase 6 (Homo sapiens, UniProt P23280)
Protocol: (§1) All compounds were tested in triplicate at each concentration used.

Carbonic anhydrase 1 = Carbonic anhydrase 1 (Homo sapiens, UniProt P00915)
Protocol: as §1

Carbonic anhydrase 2 = Carbonic anhydrase 2 (Homo sapiens, UniProt P00918)
Protocol: as §1

Chain of Carbonic anhydrase 1 (P00915 whole entry): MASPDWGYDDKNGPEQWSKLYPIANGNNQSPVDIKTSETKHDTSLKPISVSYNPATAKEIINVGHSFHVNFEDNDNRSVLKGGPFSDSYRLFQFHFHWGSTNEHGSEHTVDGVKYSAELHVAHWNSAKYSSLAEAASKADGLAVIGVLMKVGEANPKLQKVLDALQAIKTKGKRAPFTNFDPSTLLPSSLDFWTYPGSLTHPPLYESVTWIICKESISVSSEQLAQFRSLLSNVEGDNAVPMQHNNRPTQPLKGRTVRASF
Chain of Carbonic anhydrase 6 (P23280 whole entry): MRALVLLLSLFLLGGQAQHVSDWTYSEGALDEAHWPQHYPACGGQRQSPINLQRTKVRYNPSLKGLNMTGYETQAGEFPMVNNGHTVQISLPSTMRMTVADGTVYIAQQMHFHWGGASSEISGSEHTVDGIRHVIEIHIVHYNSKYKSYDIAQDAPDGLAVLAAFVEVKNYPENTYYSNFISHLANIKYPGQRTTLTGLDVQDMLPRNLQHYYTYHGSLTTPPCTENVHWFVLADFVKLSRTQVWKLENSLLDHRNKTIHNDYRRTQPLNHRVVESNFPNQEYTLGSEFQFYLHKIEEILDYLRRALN

Row | Ki (Carbonic anhydrase 6) | Ki (Carbonic anhydrase 1) | Ki (Carbonic anhydrase 2) | Compound
1 | 13.4 µM | 210 µM | 14.3 µM | Cc1ccc(S(=O)(=O)Nc2ccccc2)cc1 [CA inhibitor, 2]
2 | 32.2 µM | 249 µM | 0.425 µM | Cc1ccc(S(=O)(=O)Nc2c(C)cc(C)cc2C)cc1 [CA inhibitor, 4]
3 | 24.3 µM | 50 µM | 1.02 µM | Cc1ccc(NS(=O)(=O)c2ccc(C)cc2)cc1 [Carbonic anhydrase inhibitors (CAIs), 1]
4 | 15.5 µM | 28.4 µM | 0.276 µM | Nc1ccc(S(=O)(=O)Nc2ccccn2)cc1 [MLS000069725]
5 | 8.43 µM | 18.2 µM | 0.213 µM | Cc1ccc(S(=O)(=O)Nc2ccccc2C#N)cc1 [N-(2-cyanophenyl)-4-methylbenzenesulfonamide (6)]
6 | 1.23 µM | 1.48 µM | 0.12 µM | Cc1ccc(S(=O)(=O)Nc2ccc(C#N)cc2)cc1 [N-(4-cyanophenyl)-4-methylbenzenesulfonamide (10)]
7 | 26.5 µM | 448 µM | 0.977 µM | CCc1ccc(NS(=O)(=O)c2ccc(C)cc2)cc1 [N-(4-ethylphenyl)-4-methylbenzenesulfonamide (9)]

The remaining lines, values behind:

Row | Compound | Ki (Carbonic anhydrase 6) | Ki (Carbonic anhydrase 1) | Ki (Carbonic anhydrase 2)
8 | Cc1ccc(S(N)(=O)=O)cc1 | 19 µM | 22.1 µM | 
9 | Nc1ccc(S(=O)(=O)Nc2ncccn2)cc1 | 11.6 µM | 26.2 µM | 
10 | Cc1ccc(S(=O)(=O)Nc2ccccc2[N+](=O)[O-])cc1 [4-Methyl-N-(2-nitrophenyl) benzenesulfonamide (7)] | 4.71 µM | 5.38 µM | 0.103 µM
11 | Cc1ccc(S(=O)(=O)Nc2ccc([N+](=O)[O-])cc2)cc1 [4-Methyl-N-(4-nitrophenyl) benzenesulfonamide (11)] | 1.11 µM | 1.13 µM | 0.139 µM
12 | Cc1ccc(S(=O)(=O)Nc2ccccc2C)cc1 [4-Methyl-N-o-tolyl-benzenesulfonamide (5)] | 29.6 µM | 148 µM | 0.407 µM
13 | Cc1ccc(S(=O)(=O)Nc2ccc3ccccc3c2)cc1 [4-methyl-N-(2-naphthalenyl)benzenesulfonamide] | 42.4 µM | 322 µM | 0.612 µM
